Data: patent US20220296611A1, “PHARMACEUTICAL COMPOSITION FOR PREVENTING OR TREATING CANCER” (SEOUL NATIONAL UNIVERSITY R&DB FOUNDATION, priority 2019, published 2022)

Experiments:
HeLa cells = test: Comparison of cell viability of HeLa cells (MTT assay); format: cell-based; conditions: 24 h and 48 h after treatment; TUDCA 1000 μM, fenbendazole 1.2 μM, doxorubicin 10 μM
Procedure: 3. MTT Assay As illustrated in the flow chart shown in FIG. 1, the degree of cytotoxicity was evaluated through MTT assay. (1) HeLa cells are cervical cancer cell lines. In this experiment, experimental groups were divided as follows: specifically, a group in which HeLa cells are not treated, that is, no treatment group (NT); a doxorubicin-treated group (Doxo); a fenbendazole-treated group (Fen); a TUDCA treated group (TUDCA); and a group treated with a mixture of fenbendazole and TUDCA (Fen+TUDCA), and cell viability was compared over time (24 h, 48 h) after treatment. […] Further, the mixture of fenbendazole and TUDCA was prepared by mixing both compounds with the above concentrations at the same dose. Further, all treatment groups were treated with the corresponding compounds at the same dose.

Hepa cells (Hepa1c1c7) = test: Comparison of cell viability of Hepa cells (MTT assay, cell number counting); format: cell-based, Murin; conditions: 48 h
Procedure: After culturing cells, the cells were resuspended in a fresh medium. After obtaining 200 μL of the cell suspension, […] of […] with a dilution factor of 2× was added thereto.
A hemocytometer equipped with a coverslip was prepared, and each chamber was filled with the suspension, followed by counting the number of cells. A specific counting method is as follows.
1) Live cells/ml=No. of cells counted/No. of squares counted×Dilution factor×1000
2) Dead cells/ml=No. of dead cells/No. of squares counted×Dilution factor×100
3) Percentage Viability=No. of live cells/Total No. of cells×100
As illustrated in the flow chart shown in FIG. 1, the degree of cytotoxicity was evaluated through MTT assay.
(1) In the present invention, all liver cancer cell lines were Murin hepatoma cell lines (Hepa1c1c7), hereinafter, referred to as Hepa cells. In this experiment, the following definitions were applied: no treatment group (NT); a fenbendazole treatment group (Fen); a TUDCA 200 μmol treatment group (TUDCA 200); a TUDCA 500 μmol treatment group (TUDCA 500); a TUDCA 1000 μmol treatment group (TUDCA 1000); a mixture of 1.2 μmol fenbendazole and 200 μmol TUDCA (1.2+200); a mixture of 1.2 μmol fenbendazole and 500 μmol TUDCA (1.2+500); a mixture of 1.2 μmol fenbendazole and 1000 μmol TUDCA (1.2+1000), respectively. […]

| SMILES | apoptotic effects (cell viability of HeLa cells) compared to doxorubicin (HeLa cells) | apoptosis effect depending on the concentration of TUDCA (Hepa cells (Hepa1c1c7)) |
| --- | --- | --- |
| C[C@H](CCC(=O)NCCS(=O)(=O)O)[C@H]1CC[C@H]2[C@@H]3[C@@H](O)C[C@@H]4C[C@H](O)CC[C@]4(C)[C@H]3CC[C@]12C [TUDCA, tauroursodeoxycholic acid] | more excellent apoptotic effects at 24 h and 48 h after treatment than doxorubicin | the higher the concentration of TUDCA, the better the apoptosis effect at 48 h |
| COC(=O)Nc1nc2ccc(Sc3ccccc3)cc2[nH]1 [fenbendazole] | more excellent apoptotic effects at 24 h and 48 h after treatment than doxorubicin |  |
